Assay results published in patent publication US6624317B1, “Taxoid conjugates as antimitotic and antitumor agents” (priority 2000, dated 2003).

Key:
[1] = test system: epiderimoid carcinoma of the nasopharynx (KB); experiment: in vitro cytotoxicity assay, KB; format: cell-based, human; details: drug exposure 3 days
Method: (§1) Biological Assay. The in vitro cytotoxicity assay was carried out according to procedures described in Rubinstein et al. (P. Ferguson et al., Cancer Res. 1988, 48, 5956-5964). […] The human tumor cell line panel consisted of epiderimoid carcinoma of the nasopharynx (KB), lung carcinoma (A-549), ileocecal carcinoma (HCT-8), renal cancer (CAKI-1), breast cancer (MCF-7), melanoma cancer (SKMEL-2), and ovarian cancer (1A9). The drug resistant cell line panel consisted of three KB-derivatives, -7d, -CPT, and -VCR. The properties of these cells are described elsewhere (P. Ferguson et al., Cancer Res. 1988, 48, 5956-5964; D. Beidler et al., Cancer Res. 1996, 56, 345-353). […] They were a generous gift of Dr. P. Giannakakou (P. Giannakakou et al., J. Biol. Chem. 1997, 27, 17118-17125). Cells were cultured at 37° C. in RPMI-1640 with 100 ug/mL kanamycin and 10% (v/v) fetal bovine serum in a humidified atmosphere containing 5% CO2. Initial seeding densities varied among the cell lines to ensure a final absorbance of 1-2.5 A562 units. Drug exposure was for 3 days, and the ED50 value, the drug concentration that reduced the absorbance by 50%, was interpolated from dose-response data.

lung carcinoma (A-549) = experiment: in vitro cytotoxicity assay, A549; details: read-out: Cytotoxicity (ED50) A549; A549; drug exposure 3 days; NA = not active
Method: as §1

[2] = test system: ileocecal carcinoma (HCT-8); experiment: in vitro cytotoxicity assay, HCT-8; details: read-out: Cytotoxicity (ED50) HCT-8; HCT-8; drug exposure 3 days; NA = not active
Method: as §1

renal cancer (CAKI-1) = experiment: in vitro cytotoxicity assay, CAKI-1; details: read-out: Cytotoxicity (ED50) CAKI-1; CAKI-1; drug exposure 3 days
Method: as §1

breast cancer (MCF-7) = experiment: in vitro cytotoxicity assay, MCF-7; details: read-out: Cytotoxicity (ED50) MCF-7; MCF-7; drug exposure 3 days
Method: as §1

[3] = test system: melanoma cancer (SKMEL-2); experiment: in vitro cytotoxicity assay, SK-MEL-2; details: read-out: Cytotoxicity (ED50) SK-MEL-2; SK-MEL-2; drug exposure 3 days; NA = not active
Method: as §1

ovarian cancer (1A9) = experiment: in vitro cytotoxicity assay, 1A9; details: read-out: Cytotoxicity (ED50) 1A9 (OVCAR); 1A9 (OVCAR); drug exposure 3 days
Method: as §1

KB-7d = experiment: cytotoxicity in drug resistant cell line KB-7d; format: cell-based, human; details: KB-7d drug resistant KB derivative
Method: as §1
(§2) The newly synthesized taxoid-4′-O-demethyl epipodophyllotoxin conjugates were evaluated in house using standard cytotoxicity assays in human tumor (HTCL) and drug-resistant (DRCL) cell lines. Reference compounds were paclitaxel (1), cephalomannine (2), and epipodophyllotoxins [etoposide (5) and GL-331 (7), see FIG. 1]. The HTCL panel was comprised of KB, A549, HCT-8, CAKI-1, MCF-7, SK-MEL-2, and 1A9 cell lines. Two paclitaxel-resistant 1A9 sub-lines designated as PAX-10 and PAX-22 were also tested as part of the DRCL panel. Other resistant-cell lines were KB derivatives expressing various mechanisms or multi-drug resistance as described elsewhere (P. Ferguson et al., Cancer Res. 1988, 48, 5956-5964; D. Beidler et al., Cancer Res. 1996, 56, 345-353).

KB-VCR = experiment: cytotoxicity in drug resistant cell line KB-VCR; format: cell-based, human; details: KB-VCR drug resistant KB derivative
Method: as §1, §2

KB-CPT = experiment: cytotoxicity in drug resistant cell line KB-CPT; format: cell-based, human; details: KB-CPT drug resistant KB derivative
Method: as §1, §2

PAX-10 = experiment: cytotoxicity in paclitaxel-resistant 1A9 sub-line PAX-10; format: cell-based, human; details: PAX-10 paclitaxel-resistant 1A9 sub-line
Method: as §1, §2

PAX-22 = experiment: cytotoxicity in paclitaxel-resistant 1A9 sub-line PAX-22; format: cell-based, human; details: PAX-22 paclitaxel-resistant 1A9 sub-line
Method: as §1, §2

leukemia cell lines = experiment: NCI human tumor cell lines, leukemia; format: cell-based; details: average over all cell lines of the tumor type; data provided by the NCI
[4] = test system: Non-small cell lung cancer cell lines; experiment: NCI human tumor cell lines, NSCL; format: cell-based; details: average over all cell lines of the tumor type; data provided by the NCI
Colon cell lines = experiment: NCI human tumor cell lines, colon; format: cell-based; details: average over all cell lines of the tumor type; data provided by the NCI
[5] = test system: Central nervous system cancer cell lines; experiment: NCI human tumor cell lines, CNS; format: cell-based; details: average over all cell lines of the tumor type; data provided by the NCI
melanoma cell lines = experiment: NCI human tumor cell lines, melanoma; format: cell-based; details: average over all cell lines of the tumor type; data provided by the NCI
ovarian cell lines = experiment: NCI human tumor cell lines, ovarian; format: cell-based; details: average over all cell lines of the tumor type; data provided by the NCI
renal cell lines = experiment: NCI human tumor cell lines, renal; format: cell-based; details: average over all cell lines of the tumor type; data provided by the NCI
prostate cell lines = experiment: NCI human tumor cell lines, prostate; format: cell-based; details: average over all cell lines of the tumor type; data provided by the NCI
breast cell lines = experiment: NCI human tumor cell lines, breast; format: cell-based; details: average over all cell lines of the tumor type; data provided by the NCI
Topoisomerase II = Topoisomerase II activity assay (inhibition of topo II in vitro); format: biochemical; details: NA^1 not active at 50 uM, NA^2 not active at 100 uM
Excerpt: (§3) Protein-Linked DNA Break and Topoisomerase 11 Activity Assays. The procedures were done according to detailed published methods (K. Bastow et al., Bioorg. Med. Chem. 1997, 5, 1481-1488).

[6] = test system: Cellular protein-DNA complex formation; experiment: Protein-linked DNA break assay (cellular protein-DNA complex formation); format: cell-based
Excerpt: as §3

[7] = test system: paclitaxel resistant cells; experiment: cytotoxicity against paclitaxel resistant cells (overall); format: cell-based, human; details: compared with the unconjugated components, Table 3
Method: as §1, §2

[8] = test system: approximately 60 human tumor cell lines; experiment: NCI cytotoxicity evaluation in approximately 60 human tumor cell lines (overall); format: cell-based; details: especially leukemia, colon, and prostate cell lines

SMILES: COc1cc([C@@H]2c3cc4c(cc3[C@@H](N=Cc3ccc(C(=O)O[C@@H](C(=O)O[C@H]5C[C@@]6(O)[C@@H](OC(=O)c7ccccc7)[C@@H]7[C@]8(OC(C)=O)CO[C@@H]8C[C@H](O)[C@@]7(C)C(=O)[C@H](OC(C)=O)C(=C5C)C6(C)C)[C@@H](NC(=O)c5ccccc5)c5ccccc5)cc3)[C@H]3COC(=O)[C@H]23)OCO4)cc(OC)c1O [Compound 12]
- Cytotoxicity (ED50) KB [1]: 0.003 µM
- EC50 (lung carcinoma (A-549)): 0.21 µM
- EC50 [2]: 0.54 µM
- EC50 (renal cancer (CAKI-1)): > 0.25 µM
- EC50 (breast cancer (MCF-7)): 0.33 µM
- EC50 [3]: > 0.4 µM
- EC50 (ovarian cancer (1A9)): 0.03 µM
- Resistance Fold KB-7d (KB-7d): 1
- Resistance Fold KB-VCR (KB-VCR): 17
- Resistance Fold KB-CPT (KB-CPT): 1
- Resistance Fold PAX-10 (PAX-10): 7
- Resistance Fold PAX-22 (PAX-22): 17
- log GI50 leukemia (leukemia cell lines): −7.60
- log GI50 NSCL [4]: −6.58
- log GI50 Colon (Colon cell lines): −7.20
- log GI50 CNS [5]: −6.93
- log GI50 melanoma (melanoma cell lines): −6.29
- log GI50 ovarian (ovarian cell lines): −6.55
- log GI50 renal (renal cell lines): −6.13
- log GI50 prostate (prostate cell lines): −7.22
- log GI50 breast (breast cell lines): −6.56
- Inhibition of Topo II IC100 (Topoisomerase II): 100 µM
- Cellular protein-DNA complex formation ([6]; Etoposide given as 100, NA^1 not active at 50 uM, NA^2 not active at 100 uM): 8 +/− 2%
- intracellular poisoning / stimulation of protein-DNA breaks in cells (in words) ([6]; in cells): intracellular poisons
- activity against paclitaxel resistant cells (in words) [7]: enhanced activity against paclitaxel resistant cells
- inhibitory effects against NCI tumor cell lines (in words) [8]: strongest inhibitory effects against a variety of tumor cell lines
